Data published in PMC6761534 (Antimicrobial Agents and Chemotherapy, 2019).

Tests used:
Format in all cases: cell-based, Mycobacterium tuberculosis
[1] = tested on: M. tuberculosis c subunit mutant strain D28A
[2] = tested on: M. tuberculosis c subunit mutant strain A63P
[3] = tested on: M. tuberculosis c subunit mutant strain D28V
M. tuberculosis H37Rv = tested on: M. tuberculosis H37Rv
[4] = tested on: M. tuberculosis c subunit mutant strain D28G
[5] = tested on: M. tuberculosis c subunit mutant strain E61D
[6] = tested on: M. tuberculosis c subunit mutant strain I66M

SMILES | MIC90 fold increase in M. tuberculosis c subunit mutant strain D28A [1] | MIC90 fold increase in M. tuberculosis c subunit mutant strain A63P [2] | MIC90 fold increase in M. tuberculosis c subunit mutant strain D28V [3] | Mutation frequency (M. tuberculosis H37Rv) | No. of atpE mutants/total no. of mutants isolated (M. tuberculosis H37Rv) | MIC90 fold increase in M. tuberculosis c subunit mutant strain D28G [4] | MIC90 fold increase in M. tuberculosis c subunit mutant strain E61D [5] | MIC90 fold increase in M. tuberculosis c subunit mutant strain I66M [6]
COc1cc([C@](O)(CCN(C)C)[C@@H](c2cc3cc(Br)ccc3nc2OC)c2cc(OC)nc(OC)c2OC)cc(OC)n1 [TBAJ-876] | 140 fold | 48 fold | 132 fold | 4.23 × 10^−9 | 5/5 | 104 fold | 100 fold | 59 fold
COc1nc2ccc(Br)cc2cc1[C@@H](c1ccccc1)[C@@](O)(CCN(C)C)c1cccc2ccccc12 [BDQ, Bedaquiline, reference compound] | >400 fold | >400 fold | >400 fold | – | – | >400 fold | 312 fold | 262 fold
COc1cc([C@](O)(CCN(C)C)[C@@H](c2cc3cc(Br)ccc3nc2OC)c2ccnc(OC)c2OC)cc(OC)n1 [compound 5307] | 357 fold | 150 fold | 360 fold | 3.00 × 10^−8 | 33/34 | 235 fold | 100 fold | 87 fold
COc1cc([C@](O)(CCN(C)C)[C@@H](c2cc3cc(Br)ccc3nc2OC)c2cccc3c2OCCO3)cc(OC)n1 [compound 5316] | 200 fold | 72 fold | 200 fold | 6.36 × 10^−9 | 7/7 | 200 fold | 105 fold | 42 fold
COc1cc([C@](O)(CCN(C)C)[C@H](c2cc(OC(C)C)cnc2OC)c2cc3cc(Br)ccc3nc2OC)cc(OC)n1 [compound 5366] | 333 fold | 50 fold | 250 fold | 2.54 × 10^−8 | 28/28 | 300 fold | 45 fold | 50 fold
